The text below walks through data of US6835867B1, “Allelic series of genomic modifications in cells” (priority 1998, dated 2004).

Experiment [1] deals with Mouse ES cells (129/Sv+Tyr, +p). The experiment can be described thus: Survival of ES cells after 5 hour ENU treatment (colony counting). The settings on record: for survival: 5 hours, counted after 3 days of culture. The class given is cell-based. As to the method: Mouse ES cells (129/Sv+^Tyr, +^p) were used. Cells were grown in culture medium [MEM (Gibco) supplemented with 15% heat-inactivated fetal calf serum, LIF, and 10 μM β-mercaptoethanol. Cells were routinely grown on 100-mm petri dishes and cultivated at 37° C. in a humidified atmosphere of 5% CO2 in air. For subculturing, cells were disassociated with HBSS containing 0.25% trypsin and 0.02% EDTA. After a 3-minute incubation at room temperature, cells were resuspended in culture medium and cell numbers determined using a hemocytometer.
The plating efficiency was determined by plating 2×10^3 cells per 100-mm dish, fixing the cells after 6-days with methanol, staining with 0.01% crystal violet and scoring colonies. Colonies were scored for the calculation of plating efficiency as percent of the inoculated cell number. The plating efficiencies were approximately 20%.
In the first protocol, actively growing ES cells were trypsinized and plated at 5×10^5 cells per T25 flask and after 1 day preincubation treated for 5 hours with 0.3 mg/ml, 0.4 mg/ml or 0.5 mg/ml ENU (dissolved in medium without FCS by vigorous shaking and filter sterilization with 0.2 μm cellulose acetate filters immediately before use). Control cells and cells which had been treated with ENU were washed three times with PBS and the number of surviving cells determined after 3 days of culture in culture medium by plating 2,000 cells from control and from ENU-treated flasks and counting surviving colonies as described above. […] Surviving EA cells which had been treated with 0.3 mg/ml ENU were subcultured at 3:1 onto 60-mm petri dishes in the presence (set 1) and absence (set 2) of primary embryothic fibroblasts (PMEFs). ES cells grown on PMEFs (set 1) were cultured for 3 days, subcultured at 3:1 onto 60-mm petri dishes without PMEFs, trypsinized, plated at 4×10^5 cells per 100-mm plate without PMEFs and grown for 2 days. ES cells grown in the absence of PMEFs (set 2) were trypsinized-after 5 days in culture and plated at 4×10^5 cells per 100-mm plate without PMEFs. Cells (set 1 and set 2) were subsequently grown for 1 day prior to the addition of 10 μM 6-TG to the culture medium and further incubated for an additional 6 days in the presence of 6-TG. The number of 6-TG resistant colonies was calculated, and individual colonies were separately plated in a 96-well microtiter dish.
In the second protocol, actively growing ES cells were trypsinized and plated at two densities (1×10^5 and 0.5×10^5 cells/well) in 24-well tissue culture plates instead of T25 flasks. After a one-day preincubation period, cells were treated for 5 hours with 0.3 mg/ml or 0.4 mg/ml ENU (as described above) and subsequently treated as described in Table 2.

For experiment [2] the following is noted: literature statement; cited from earlier work.
Experiment [3] deals with hypoxanthine guanine phosphoribosyltransferase (Hprt) gene in mouse embryonic stem (ES) cells. Nature of the experiment: ENU-induced Hprt-inactivating mutations, 6-TG selection, Protocol 2 (24-well plates). It is filed as cell-based. On the procedure:
In the second protocol, actively growing ES cells were trypsinized and plated at two densities (1×10^5 and 0.5×10^5 cells/well) in 24-well tissue culture plates instead of T25 flasks. After a one-day preincubation period, cells were treated for 5 hours with 0.3 mg/ml or 0.4 mg/ml ENU (as described above) and subsequently treated as described in Table 2. [table]

For experiment [4] the test system is unchanged. The experiment can be described thus: ENU-induced Hprt-inactivating mutations, 6-TG selection, Protocol 1. The class given is cell-based. The following applies: 0.3 mg/ml ENU.

Values joined by “and” are separate entries in the source; they are usually repeats but may differ in a detail not shown here. Equal entries are not always repeated. “Also recorded” adds a separate entry of the source.

Take `CCN(N=O)C(N)=O` [ENU, N-ethyl-N-nitrosurea]: the survival is 10% in experiment [1] (0.3 mg/ml ENU), “less than 5%” in experiment [1] (0.4 mg/ml ENU) and 0% in experiment [1] (0.5 mg/ml ENU). In experiment [1] (0.4 mg/ml ENU, Plate 3, 5 days after plating, plate discarded), the colonies surviving result is “Discarded, very few”. Besides, in experiment [2], the “efficiency in generating mutations relative to other agents” value is recorded as “at least 10 fold”. Moreover, the Total colonies entry in experiment [3] (0.3 mg/ml ENU, Plate 1) was “Total: 23 colonies”; in experiment [3] (0.3 mg/ml ENU, Plate 2), “Total: 12 colonies”; in experiment [3] (0.4 mg/ml ENU, Plate 4), “Total: 22 colonies”. Moreover, the No. colonies/plate entry in experiment [3] (0.3 mg/ml ENU, Plate 1, day 16, individual 60-mm dishes) was “Plate 2: 3 colonies; also recorded: Plate 3: 5 colonies; also recorded: Plate 5: 1 colony colonies; also recorded: Plate 6: 1 colony colonies; also recorded: Plate 7: 2 colonies; also recorded: Plate 8: 2 colonies; also recorded: Plate 9: 4 colonies”; in experiment [3] (0.3 mg/ml ENU, Plate 2, day 16, individual 60-mm dishes), “Plate 2: 1 colony colonies; also recorded: Plate 3: 2 colonies; also recorded: Plate 4: 1 colony colonies; also recorded: Plate 5: 4 colonies; also recorded: Plate 6: 2 colonies”; in experiment [3] (0.4 mg/ml ENU, Plate 4, day 17, individual 60-mm dishes), “Plate 1: 14 colonies; also recorded: Plate 2: 18 colonies”. Further, the “plates that yielded colonies after 6-thioguanine” value was 9 plates yielded colonies, in experiment [3] (0.3 mg/ml ENU, Plate 1, day 16, of 24 dishes); 6 plates yielded colonies, in experiment [3] (0.3 mg/ml ENU, Plate 2, day 16, of 24 dishes); 2 plates yielded colonies, 22 in experiment [3] (0.4 mg/ml ENU, Plate 4, day 17, of 24 dishes). For the same compound, the Mutation frequency maximum in experiment [3] (0.4 mg/ml ENU, Plate 4) was 1/800. Further, in experiment [4] (10 μM 6-TG, sum of 6 plates), the “Total colonies (+PMEF plates)” value is reported as 21. For the same compound, the “Total colonies (−PMEF plates)” value in experiment [4] (10 μM 6-TG, sum of 6 plates) stood at 77. The “Mutation Frequency Maximum (−PMEF plates)” value in experiment [4] (Hprt locus) was 1/623. Further, the “No. Surviving Colonies (−PMEF plates), 6-TG selection (Hprt deficient), per plate” value in experiment [4] (set 2 grown without PMEFs, 10 μM 6-TG, plates 1-6) is 14 and 15 and 12 and 9.
